{"source": "paper PMC11477965", "about": "“Synthesis and Anti-Liver Fibrosis Research of Aspartic Acid Derivatives” (Molecules, 2024)", "key": {"COL1A1 promoter": {"system": "COL1A1 promoter", "assay": "COL1A1 promoter luciferase reporter inhibition assay in LX-2 cells;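 on all read-outs here: Anti-fibrotic screen: luciferase reporter driven by the COL1A1 promoter in human hepatic stellate LX-2 cells, compounds applied in complete medium in 96-well plates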", "type": "cell-based, human", "settings": "for inhibition at 500 µM: read-out: Inhibitory Rate (%) of COL1A1 promotor; for relative fluorescence unit (RFU) of COL1A1 promotor: mean ± SD, n = 3, Control 124874.7 ± 10750.9", "protocol": "A total of 32 target compounds, the lead compound L-Asp, and the positive control epigallocatechin gallate (EGCG), known for its anti-hepatic fibrotic activity [29], were tested for inhibitory effects on COL1A1 promoter activity at a concentration of 0.5 mM.\nThe LX-2 cells at 90% confluent were transfected with the plasmid of pGL4.17-COL1A1 promoter using Lipofectamine 2000 (Invitrogen, 11668019, Carlsbad, CA, USA) with Opti-MEM serum-free medium (Gibco, 1930104). After culturing for 6 h, the cells were replaced with a complete medium and seeded in 96-well plates for 24 h. The compound to be tested was prepared using a complete medium and added to the 96-well plate. After 24 h, Bright-Glo Luciferase Assay System (Promega, Madison, WI, USA) was used to detect the activity of COL1A1 promoter and the assaying inhibition rate."}, "[1]": {"assay": "SRB cytotoxicity assay in LX-2 cells", "type": "cell-based, human", "settings": "human, LX-2 cells, SRB assay", "description": "(§1) Their cytotoxicity in LX-2 cells was assessed across various concentrations using the SRB assay, and the cytotoxic concentrations (CC50) were determined. The selectivity index (SI), calculated as the ratio of CC50 to the […] (IC50), was employed to evaluate the compounds’ effects on the COL1A1 promoter (Table 2).\n(§2) The LX-2 cells were seeded in a 96-well plate when reaching 90% confluent. After 24 h, the compound to be tested was prepared using a complete medium and added to the 96-well plate for 24 h. After washing with PBS, the cells were fixed with 10% (wt/vol) trichloroacetic acid for 1 h, washed with deionized water and dried completely and, after staining with SRB for 20 min, the excess dye was washed with 1% acetic acid (vol/vol) three times. The dye bound to the protein was dissolved with 10 mM Tris base solution and OD values were determined at […]."}, "LX-2 cells [2]": {"system": "LX-2 cells", "assay": "SRB cytotoxicity assay in LX-2 cells", "type": "cell-based, human", "settings": "CC50 in LX-2 cells / IC50 on COL1A1 promoter", "description": "as §1, §2"}, "[3]": {"system": "fibro-genic gene expression (fibronectin, COL1A1, TGFβ, α-SMA, CTGF, and TIMP1)", "assay": "Western blot of fibro-genic proteins in TGFβ1-activated LX-2 cells", "type": "cell-based, human", "settings": "TGFβ1 2 ng/mL, 24 h; for expression of fibro-genic genes (western blot): compound 100 μmol/L", "description": "(§3) To evaluate the anti-fibrotic efficacy in vitro, we assessed the downregulatory effects of ten active compounds (3, 4c, 4d, 8a, 9, 28a, 32a, 41, 43 and 45) and L-Asp on fibro-genic gene expression (fibronectin, COL1A1, TGFβ, α-SMA, CTGF, and TIMP1) using western blot analysis. LX-2 cells were activated with TGFβ1 (2 ng/mL) and concurrently treated with each compound (100 μmol/L) for 24 h.\n(§4) After the confluence of LX-2 cells reached 90%, the cells were treated with serum-free medium for 24 h. 2 ng/mL TGFβ1 or 1 μg/mL LPS were used in combination with compounds of different concentrations for 24 h. The samples of cells were lysed in RIPA buffer supplemented with protease inhibitor cocktail (Roche) and separated by SDS-PAGE. After the proteins were transferred to the PVDF membrane, 5% skim milk in TBS-T buffer was used to block them at room temperature for 2 h. Specific primary and secondary antibodies were used to detect the target protein. Finally, the blot was visualized using the Tanon 5200 system (Tanon, Shanghai, China) and the protein expression of GAPDH was used as the internal reference."}, "[4]": {"system": "IKKβ-NF-κB signaling pathway", "assay": "LPS-induced inflammation in LX-2 cells (western blot)", "type": "cell-based, human", "settings": "24 h; for LPS-induced phosphorylation and baseline expression of IKKβ, NF-κB phosphorylation and expression: LPS 1 μg/mL, 50, 100, 200, and 500 μmol/L; for IL-6 expression / inhibition of inflammatory factors: LPS 1 μg/mL; for inhibition of inflammatory factors: 500 μM bands scanned", "description": "Inflammation is crucial in the onset and progression of liver fibrosis, and fibrosis can further exacerbate tissue inflammation. […] To assess the anti-inflammatory effects of Compounds 41 and 8a, LX-2 cells were pre-incubated in serum-free medium for 24 h before LPS stimulation, followed by treatment with different concentrations of the compounds in serum-free medium containing 1 μg/mL LPS for another 24 h. Changes in inflammatory cytokine protein levels were analyzed using western blotting.\nThe IKKβ-NF-κB signaling pathway has been closely linked to the severity of liver fibrosis, with IKKβ serving as the primary catalytic subunit responsible for NF-κB activation. Therefore, this study investigated the NF-κB pathway by measuring IKKβ kinase activity. […] To evaluate the effects of the target compounds on LPS-induced inflammatory cytokines, four concentrations (50, 100, 200 and 500 μmol/L) were tested, and the results were analyzed by grayscale scanning of western blot bands using ImageJ software (version 1.53t), with normalization to GAPDH protein levels.\nas §4"}, "LX-2 cells [5]": {"system": "LX-2 cells", "assay": "LPS-induced activation of LX-2 cells, fibro-genic proteins (western blot)", "type": "cell-based, human", "settings": "LPS 1 μg/mL, 50, 100, 200, and 500 μmol/L, 24 h", "description": "Taking the results of Figure 3 and Figure 4 together, it seems that compounds 41 and 8a alleviate inflammation and inhibit liver fibrosis through the IKKβ-NF-κB signaling pathway, as indicated in Figure 5.\nas §4"}, "[6]": {"system": "mRNA expression of COL1A1, TGFβ1, and MMP2", "assay": "RT-qPCR of fibro-genic mRNA in TGFβ1-activated LX-2 cells", "type": "cell-based, human", "settings": "TGFβ1 2 ng/mL, 24 h", "description": "as §3\nThe LX-2 cells were seeded in a 6-well plate and cultured in a complete medium at 37 °C in a 5% CO2 environment until reaching 90% confluence. After culture without serum medium for 24 h, the cells were treated with 2 ng/mL TGFβ1 or 1 μg/mL LPS and the right concentration of compounds for 24 h. Total RNA was extracted using TRIzol reagent and purified by NucleoSpin RNA Clean-up Kit (Macherey-Nagel, Munich, Germany). Total RNA was reverse-transcribed into […] using a Transcriptor First Strand cDNA Synthesis Kit (Roche, Basel, Switzerland). The relative expression levels of the target gene were determined using a TaqMan probe with an ABI Q3 quantitative real-time PCR system, while GAPDH was utilized as an internal control for mRNA expression. The fold change of target mRNA expression was calculated using Equation 2^−∆∆Ct."}, "[7]": {"settings": "Homo sapiens, LX-2, LX-2 cells, read-out: IC50 to inhibit the activity of COL1A1 promoter by 50%"}, "[8]": {"settings": "Homo sapiens, LX-2 cells, 0.5 mM, 24 h"}, "[9]": {"settings": "24 h, read-out: CC50, cytotoxic concentration required to inhibit the growth of LX-2 cells by 50%"}}, "note": "Entries after “also recorded” stand apart in the source; their conditions may differ. Like-named read-outs stand apart in the source and are kept apart here. Where a SMILES comes first, the peptide text is derived from it.", "data": [{"molecule": "CC(C)(C)OC(=O)C[C@H](NC(=O)OCC1c2ccccc2-c2ccccc21)C(=O)NCCO", "note": "[Compound 3, Tert-butyl (S)-3-((((9H-fluoren-9-yl)methoxy)carbonyl)amino)-4-((2-hydroxyethyl)amino)-4-oxobutanoate]", "values": [{"measurement": "IC50", "setting": "COL1A1 promoter; [7]", "value": "327 ± 17.1", "unit": "µM"}, {"measurement": "inhibition at 500 µM", "setting": "COL1A1 promoter; [8]", "value": "81.5 ± 5.62", "unit": "%"}, {"measurement": "relative fluorescence unit (RFU) of COL1A1 promotor", "setting": "COL1A1 promoter; LX-2 cells", "value": "23056.9 ± 7017.3", "unit": "RFU"}, {"measurement": "CC50 at 24 h", "setting": "[1]; [9]", "value": "660 ± 24.6", "unit": "µM"}, {"measurement": "SI, selectivity index (CC50/IC50)", "setting": "LX-2 cells [2]", "value": 2.01}, {"measurement": "melting point", "value": "93.2 to 95.6", "unit": "°C"}]}, {"molecule": "C[C@H](N)C(=O)N[C@@H](CC(=O)O)C(=O)O", "note": "[Compound 8a, L-alanyl-L-aspartic acid] (H-Ala-Asp-OH)", "values": [{"measurement": "inhibition at 500 µM", "setting": "COL1A1 promoter; Homo sapiens, LX-2, 24 h", "value": "49.3 ± 13.3", "unit": "%"}, {"measurement": "IC50", "setting": "COL1A1 promoter; Homo sapiens, LX-2, read-out: IC50 to inhibit the activity of COL1A1 promoter by 50%", "value": "1050 ± 111", "unit": "µM"}, {"measurement": "relative fluorescence unit (RFU) of COL1A1 promotor", "setting": "COL1A1 promoter; LX-2 cells", "value": "63265.3 ± 16582.4", "unit": "RFU"}, {"measurement": "CC50 at 24 h", "setting": "[1]; [9]", "value": 13900, "unit": "µM"}, {"measurement": "CC50 at 24 h", "setting": "[1]; read-out: CC50 in LX-2 cells", "value": 13000, "unit": "µM"}, {"measurement": "SI, selectivity index (CC50/IC50)", "setting": "LX-2 cells [2]", "value": 13.16}, {"measurement": "expression of fibro-genic genes (western blot)", "setting": "[3]", "value": "no significant inhibitory effect"}, {"measurement": "LPS-induced phosphorylation and baseline expression of IKKβ, NF-κB phosphorylation and expression", "setting": "[4]", "value": "dose-dependent reduction"}, {"measurement": "IL-6 expression", "setting": "[4]", "value": "significantly suppressed"}, {"measurement": "inhibition of inflammatory factors", "setting": "[4]", "value": "superior inhibitory effects"}, {"measurement": "protein expression of COL1A1, fibronectin, α-SMA, and CTGF", "setting": "LX-2 cells [5]", "value": "significantly reducing"}]}, {"molecule": "CC[C@@H]1C2C[C@H](O)CC[C@]2(C)C2CC[C@@]3(C)C(CCC3[C@H](C)CCC(=O)N[C@@H](CC(=O)O)C(=O)O)C2[C@@H]1O", "note": "(stereo partly drawn) [Compound 9, ((4R)-4-((3R,6R,7R,10S,13R)-6-ethyl-3,7-dihydroxy-10,13-dimethylhexadecahydro-1H-cyclopenta[a]phenanthren-17-yl)pentanoyl)-L-aspartic acid]", "values": [{"measurement": "IC50", "setting": "COL1A1 promoter; [7]", "value": "270 ± 47.9", "unit": "µM"}, {"measurement": "inhibition at 500 µM", "setting": "COL1A1 promoter; [8]", "value": "97.4 ± 3.53", "unit": "%"}, {"measurement": "relative fluorescence unit (RFU) of COL1A1 promotor", "setting": "COL1A1 promoter; LX-2 cells", "value": "3188.3 ±4407.2", "unit": "RFU"}, {"measurement": "CC50 at 24 h", "setting": "[1]; [9]", "value": "351 ± 19.4", "unit": "µM"}, {"measurement": "SI, selectivity index (CC50/IC50)", "setting": "LX-2 cells [2]", "value": 1.30}, {"measurement": "melting point", "value": "108.2 to 110.6", "unit": "°C"}]}, {"molecule": "COC(=O)[C@H]1C[C@H](Oc2cc(Cl)nn3c(-c4ccc(OC)c(OC)c4)cnc23)CN1C(=O)OC(C)(C)C", "note": "[Compound 41, 1-(tert-butyl)-2-methyl-(2R,4S)-4-((6-chloro-3-(3,4-dimethoxyphenyl)imidazo [1,2-b]pyridazin-8-yl)oxy)pyrrolidine-1,2-dicarboxylate]", "values": [{"measurement": "IC50", "setting": "COL1A1 promoter; [7]", "value": 30, "unit": "µM"}, {"measurement": "inhibition at 500 µM", "setting": "COL1A1 promoter; [8]", "value": "66.7 ± 1.96", "unit": "%"}, {"measurement": "relative fluorescence unit (RFU) of COL1A1 promotor", "setting": "COL1A1 promoter; LX-2 cells", "value": "41555.6 ± 2445.9", "unit": "RFU"}, {"measurement": "IC50", "setting": "COL1A1 promoter; LX-2 cells, read-out: IC50 to inhibit the activity of COL1A1 promoter by 50%", "value": "30.6 ± 0.3", "unit": "µM"}, {"measurement": "CC50 at 24 h", "setting": "[1]; [9]", "value": "510 ± 51.5", "unit": "µM"}, {"measurement": "SI, selectivity index (CC50/IC50)", "setting": "LX-2 cells [2]", "value": 16.68}, {"measurement": "expression of fibro-genic genes (western blot)", "setting": "[3]", "value": "significantly suppressed"}, {"measurement": "protein levels of fibronectin, COL1A1, and α-SMA following TGFβ1 stimulation", "setting": "[3]; different concentrations", "value": "notably inhibited; also recorded: reduced the protein levels of fibronectin, COL1A1, and α-SMA in a dose-dependent manner"}, {"measurement": "mRNA expression of COL1A1, TGFβ1, and MMP2", "setting": "[6]", "value": "markedly decreased"}, {"measurement": "LPS-induced phosphorylation and baseline expression of IKKβ, NF-κB phosphorylation and expression", "setting": "[4]", "value": "dose-dependent reduction"}, {"measurement": "IL-6 expression", "setting": "[4]", "value": "significantly suppressed"}, {"measurement": "inhibition of inflammatory factors", "setting": "[4]", "value": "superior inhibitory effects"}, {"measurement": "protein expression of COL1A1, fibronectin, α-SMA, and CTGF", "setting": "LX-2 cells [5]", "value": "significantly reducing; also recorded: potent inhibition"}]}, {"molecule": "COc1ccc(-c2cnc3c(O[C@@H]4CN[C@@H](C(=O)O)C4)cc(C)nn23)cc1OC", "note": "[Compound 45, (2R,4S)-4-((3-(3,4-dimethoxyphenyl)-6-methylimidazo [1,2-b]pyridazin-8-yl)oxy)pyrrolidine-2-carboxylic acid]", "values": [{"measurement": "IC50", "setting": "COL1A1 promoter; [7]", "value": "298 ± 51.7", "unit": "µM"}, {"measurement": "inhibition at 500 µM", "setting": "COL1A1 promoter; [8]", "value": "69.6 ± 8.48", "unit": "%"}, {"measurement": "relative fluorescence unit (RFU) of COL1A1 promotor", "setting": "COL1A1 promoter; LX-2 cells", "value": "37918.9 ± 10579.6", "unit": "RFU"}, {"measurement": "CC50 at 24 h", "setting": "[1]; [9]", "value": "632 ± 11.2", "unit": "µM"}, {"measurement": "SI, selectivity index (CC50/IC50)", "setting": "LX-2 cells [2]", "value": 2.12}]}]}
